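Step 1: Grow cells in 96-well plates. Step 2: Expose to compound for 48 hours at 5 concentrations. Step 3: Interpolate endpoints linearly; if unreached, use highest concentration. The concentration for full growth arrest is given as TGI.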
Legend:
Assay in all cases: NCI tumour cell line growth inhibition, 48 h
CAKI-1 renal = tested on: CAKI-1 renal
DU-145 prostate = tested on: DU-145 prostate
HCC-2998 colon = tested on: HCC-2998 colon
HL-60(TB) leukemia = tested on: HL-60(TB) leukemia
HOP-62 NSCLC = tested on: HOP-62 NSCLC
KM12 colon = tested on: KM12 colon
MCF7 breast = tested on: MCF7 breast
OVCAR-4 ovarian = tested on: OVCAR-4 ovarian
OVCAR-5 ovarian = tested on: OVCAR-5 ovarian
OVCAR-8 ovarian = tested on: OVCAR-8 ovarian
PC-3 prostate = tested on: PC-3 prostate
RXF 393 renal = tested on: RXF 393 renal
SF-295 CNS = tested on: SF-295 CNS
SK-MEL-28 melanoma = tested on: SK-MEL-28 melanoma
SN12C renal = tested on: SN12C renal
SNB-19 CNS = tested on: SNB-19 CNS
UACC-257 melanoma = tested on: UACC-257 melanoma

Compound | TGI (CAKI-1 renal) [µM] | TGI (DU-145 prostate) [µM] | TGI (HCC-2998 colon) [µM] | TGI (HL-60(TB) leukemia) [µM] | TGI (HOP-62 NSCLC) [µM] | TGI (KM12 colon) [µM] | TGI (MCF7 breast) [µM] | TGI (OVCAR-4 ovarian) [µM] | TGI (OVCAR-5 ovarian) [µM] | TGI (OVCAR-8 ovarian) [µM] | TGI (PC-3 prostate) [µM] | TGI (RXF 393 renal) [µM] | TGI (SF-295 CNS) [µM] | TGI (SK-MEL-28 melanoma) [µM] | TGI (SN12C renal) [µM] | TGI (SNB-19 CNS) [µM] | TGI (UACC-257 melanoma) [µM]
CCOC(=O)c1ncn(CCc2ccc(Cl)cc2)c1C | > 100 | > 100 | > 100 | > 100 | > 100 | > 100 | > 100 | > 100 | > 100 | > 100 | > 100 | > 100 | > 100 | > 100 | > 100 | > 100 | > 100
CC(=O)NS(=O)(=O)c1ccc(NCc2cccc3c(=O)c4ccc(Cl)cc4oc23)cc1 | 69.6 | > 100 | > 100 | 5.43 | 96.8 | > 100 | > 100 | > 100 | > 100 | > 49.1 | > 86.2 | 78.9 | > 100 | > 100 | > 100 | > 100 | > 100
C=C1N(S(=O)(=O)c2ccc(C)cc2)C(=O)OCC12CCCC2 | > 100 | > 100 | > 100 | > 100 | – | > 100 | > 100 | > 100 | > 100 | > 100 | > 100 | > 100 | > 100 | > 100 | – | > 100 | > 100
CCCCCCCCOC(=O)C12Oc3ccc(-c4ccc5c(c4O)C(O)=C4C(=O)CC(C)C(O)C4(C(=O)OCCCCCCCC)O5)c(O)c3C(O)=C1C(=O)CC(C)C2O (configuration not stated) | 64.3 | > 100 | > 100 | 9.61 | – | > 100 | 44.9 | > 100 | 96.2 | 35 | > 100 | 11.3 | 48 | > 100 | > 100 | 36.8 | > 100
CSc1c(C#N)c(=O)n(N)c2c1c(C)nn2-c1ccccc1 | 43 | > 100 | > 100 | 94.5 | – | > 100 | 39.2 | 96.1 | > 100 | 54 | 76.7 | 69.1 | – | > 100 | > 100 | > 100 | 60.9
C=C(Cl)/C(=C\Cl)CCC(Cl)C(C)C (configuration not stated) (tested in a mixture with another compound) | 32.2 | 31.9 | 32.7 | > 100 | 32.6 | 27.6 | 26.9 | 31.2 | 34.8 | – | 39 | 23.6 | 41.2 | 34.8 | 31.3 | 31.5 | 27.2
C[N+](C)(C)CC(=O)N/N=C(\Cc1nc2ccc([N+](=O)[O-])cc2[nH]c1=O)C(=O)Nc1nc2ccc([N+](=O)[O-])cc2s1 | 92 | > 100 | > 100 | > 100 | > 100 | > 100 | > 100 | > 100 | > 100 | > 100 | > 100 | > 100 | > 100 | > 100 | > 100 | – | > 100
NS(=O)(=O)c1nnc(NS(=O)(=O)c2ccccc2[N+](=O)[O-])s1 | > 100 | > 100 | > 100 | > 100 | > 100 | > 100 | > 100 | > 100 | > 100 | – | > 100 | > 100 | > 100 | > 100 | – | > 100 | –
CN1CCN(c2cc3nc(-c4ccc(Cl)cc4)[nH]c3cc2F)CC1 | 73.4 | 83.3 | 16.7 | – | 30.6 | > 45.2 | > 45.2 | > 62.7 | 48.9 | > 100 | 40.8 | 30.9 | 28.8 | 30.8 | > 100 | > 81.8 | 26.2
Cc1cc(N2CCOCC2)nc2ccc(Cc3ccc4nc(N5CCOCC5)cc(C)c4c3)cc12 | > 100 | > 100 | 34.7 | – | > 100 | > 100 | > 100 | > 100 | > 100 | > 100 | > 100 | > 100 | > 100 | > 100 | > 100 | > 100 | > 100
O=c1[nH]c2c(c(=O)[nH]1)SC(c1ccccc1)C2 (configuration not stated) | > 100 | > 100 | > 100 | > 100 | > 100 | > 100 | > 100 | > 100 | > 100 | > 100 | > 100 | > 100 | > 100 | > 100 | – | > 100 | > 100
O=S1SC(=S)C2C=CC=NC21 (configuration not stated) | > 100 | 31.4 | 28.8 | > 100 | – | > 100 | 38.4 | > 100 | 28.6 | 79 | 30.5 | 32.5 | 62.3 | > 100 | 28.8 | 87.9 | 29
CCOC(=O)CN1C(=O)NC(C)(c2ccccc2)C1=O (configuration not stated) | > 100 | > 100 | > 100 | – | > 100 | > 100 | > 100 | > 100 | > 100 | > 100 | > 100 | > 100 | > 100 | > 100 | > 100 | > 100 | > 100
O=C(c1cscc1CCc1ccccc1)c1cscc1CCc1ccccc1 | > 100 | > 100 | > 100 | – | > 100 | > 100 | > 100 | > 100 | > 100 | > 100 | > 100 | > 100 | > 100 | > 100 | > 100 | > 100 | > 100

From PubChem BioAssay (NCI)
